Assay [1] in a line: Antiproliferative activity against human A549/CDDP cells assessed as growth inhibition after 48 hrs by sulforhodamine B assay. It counts as functional, cell-based. The conditions noted are these: A549, 48 h. (Sulforhodamine B stains cellular protein and so reports cell mass.)
Assay [2] in a line: Antiproliferative activity against mouse NIH/3T3 cells assessed as growth inhibition after 48 hrs by sulforhodamine B assay. Format: cell-based. Conditions: NIH3T3, 48 h.
The nature of assay [3]: Antiproliferative activity against human HCT8 cells assessed as growth inhibition after 48 hrs by sulforhodamine B assay. Format: functional, cell-based. Conditions: HCT-8, 48 h.
A short description of assay [4]: Antiproliferative activity against human A2780/TAX cells assessed as growth inhibition after 48 hrs by sulforhodamine B assay. Format: functional, cell-based.
Another assay concerns MCF7. Kind of assay: Antiproliferative activity against human MCF7 cells assessed as growth inhibition after 48 hrs by sulforhodamine B assay. It counts as functional, cell-based. The conditions noted are these: MCF7, 48 h.
In the next assay the test system is A549. Kind of assay: Antiproliferative activity against human A549 cells assessed as growth inhibition after 48 hrs by sulforhodamine B assay. Format: functional, cell-based. The conditions noted are these: A549, 48 h.
A short description of assay [5]: Antiproliferative activity against human MCF7/DX cells assessed as growth inhibition after 48 hrs by sulforhodamine B assay. Format: functional, cell-based.
Assay [6] in a line: Antiproliferative activity against human HCT8/VCT cells assessed as growth inhibition after 48 hrs by sulforhodamine B assay. Format: functional, cell-based.
The next assay concerns A2780. Kind of assay: Antiproliferative activity against human A2780 cells assessed as growth inhibition after 48 hrs by sulforhodamine B assay. Format: functional, cell-based. Conditions: A2780, 48 h.
For the next assay, the system named is HepG2. Kind of assay: Antiproliferative activity against human HepG2 cells assessed as growth inhibition after 48 hrs by sulforhodamine B assay. It counts as functional, cell-based. Conditions: HepG2, 48 h.
A further assay deals with SW480. Kind of assay: Antiproliferative activity against human SW480 cells assessed as growth inhibition after 48 hrs by sulforhodamine B assay. Conditions: SW480, 48 h. It counts as functional, cell-based.

With `CC(=O)O[C@H]1C(=O)[C@@]2(C)[C@H]([C@H](OC(=O)c3ccccc3)[C@]3(O)C[C@H](OC(=O)[C@H](O)[C@@H](NC(=O)OC(C)(C)C)c4ccccc4)C(C)=C1C3(C)C)[C@]1(OC(C)=O)CO[C@@H]1C[C@@H]2O`, the IC50 (usually the midpoint of a concentration-inhibition curve) in assay [1] was below 0.002 µM; in [2], below 0.002 µM; in assay [3], below 0.002 µM; in assay [4], 0.42 µM; in the assay on MCF7, below 0.002 µM; in the assay with A549 it was below 0.002 µM. In addition, the concentration for half-maximal inhibition (IC50) was below 0.002 µM in assay [5], 0.89 µM in assay [6] and below 0.002 µM in the assay with A2780.

In the case of `CCCCCC(=O)N[C@@H](c1ccccc1)[C@@H](O)C(=O)O[C@H]1C[C@@]2(O)[C@@H](OC(=O)c3ccccc3)[C@@H]3[C@]4(OC(C)=O)CO[C@@H]4C[C@H](O[C@@H]4OC[C@@H](O)[C@H](O)[C@H]4O)[C@@]3(C)C(=O)[C@H](O)C(=C1C)C2(C)C`, the IC50 in assay [1] was 0.64 µM; in assay [2], above 25 µM; in [3], 8.5 µM; in [4], above 25 µM; in the assay on MCF7, above 25 µM; in the assay on A549, 19 µM. Further, the IC50 in assay [5] is above 25 µM; in the assay with HepG2 it was above 25 µM; in assay [6], above 25 µM; in the assay on SW480, above 25 µM; in the assay with A2780 it was 1.5 µM.

As for `C=C1[C@@H](O[C@@H]2O[C@H](CO)[C@@H](O)[C@H](O)[C@H]2O)C[C@H](OC(C)=O)[C@]2(C)[C@@H]1C[C@@H]1C[C@H](O)C(C)=C([C@@H](OC(C)=O)[C@@H]2OC(C)=O)C1(C)C`, the half-inhibitory concentration (IC50) is above 25 µM in [1]; above 25 µM in [2]; above 25 µM in [3]; above 25 µM in [4]; above 25 µM with MCF7; 2.2 µM in the assay on A549. For the same molecule, the 50% inhibitory concentration (IC50) in assay [5] is above 25 µM; in the assay on HepG2, 6.1 µM; in [6] it was above 25 µM; with SW480, 16 µM; in the assay on A2780 it was above 25 µM.

Turning to `CC(=O)O[C@@]12CO[C@@H]1C[C@H](O[C@@H]1OC[C@@H](O)[C@H](O)[C@H]1O)[C@@]1(C)C(=O)[C@H](O)C3=C(C)[C@@H](OC(=O)[C@H](O)[C@@H](NC(=O)c4ccccc4)c4ccccc4)C[C@@](O)([C@@H](OC(=O)c4ccccc4)[C@H]21)C3(C)C`, the IC50 in assay [1] is 2.5 µM; in [2], above 25 µM; in [3], 0.26 µM; in [4], above 25 µM; in the assay on MCF7 it was 0.8 µM; in the assay on A549 it was 2.1 µM. Besides, the IC50 in assay [5] is 1.4 µM; with HepG2, 3 µM; in [6] it was above 25 µM; in the assay with SW480 it was 16 µM; in the assay on A2780 it was 1.6 µM.

For the molecule `C/C=C(\C)C(=O)N[C@@H](c1ccccc1)[C@@H](O)C(=O)O[C@H]1C[C@@]2(O)[C@@H](OC(=O)c3ccccc3)[C@@H]3[C@]4(OC(C)=O)CO[C@@H]4C[C@H](O[C@@H]4OC[C@@H](O)[C@H](O)[C@H]4O)[C@@]3(C)C(=O)[C@H](OC(C)=O)C(=C1C)C2(C)C`, the IC50 was above 25 µM in [1]; above 25 µM in assay [2]; above 25 µM in [3]; 17 µM in assay [4]; 0.029 µM in the assay with MCF7; 2.2 µM in the assay with A549. Also, the half-maximal inhibitory concentration (IC50) in assay [5] was above 25 µM; with HepG2, 5.8 µM; in [6] it was above 25 µM; in the assay with SW480 it was 7.2 µM; in the assay with A2780, above 25 µM.

In the case of `CC(=O)O[C@H]1C(=O)[C@]2(C)[C@@H](O[C@@H]3OC[C@@H](O)[C@H](O)[C@H]3O)C[C@H]3OC[C@@]3(OC(C)=O)[C@H]2[C@H](OC(=O)c2ccccc2)[C@]2(O)C[C@H](OC(=O)[C@H](O)[C@@H](NC(=O)c3ccccc3)c3ccccc3)C(C)=C1C2(C)C`, the IC50 is 0.92 µM in [1]; above 25 µM in assay [2]; 5.9 µM in [3]; above 25 µM in assay [4]; 0.16 µM in the assay with MCF7; 0.39 µM in the assay with A549. In addition, the IC50 in assay [5] was above 25 µM; in the assay on HepG2, 1.2 µM; in [6], above 25 µM; in the assay with SW480, 5.6 µM; with A2780 it was 0.85 µM.

`C/C=C(\C)C(=O)N[C@@H](c1ccccc1)[C@@H](O)C(=O)O[C@H]1C[C@@]2(O)[C@@H](OC(=O)c3ccccc3)[C@@H]3[C@]4(OC(C)=O)CO[C@@H]4C[C@H](O[C@@H]4OC[C@@H](O)[C@H](O)[C@H]4O)[C@@]3(C)C(=O)[C@H](O)C(=C1C)C2(C)C`: the IC50 was 3.1 µM in assay [1]; above 25 µM in [2]; above 25 µM in assay [3]; above 25 µM in [4]; 0.14 µM in the assay with MCF7; 1.9 µM with A549. The 50% inhibitory concentration (IC50) was above 25 µM in assay [5]; 3.9 µM in the assay on HepG2; above 25 µM in assay [6]; 20 µM with SW480; 3.5 µM in the assay on A2780.

With `CC(=O)O[C@@]12CO[C@@H]1C[C@H](O)[C@@]1(C)C(=O)[C@H](O)C3=C(C)[C@@H](O)C[C@@](O)([C@@H](OC(=O)c4ccccc4)[C@H]21)C3(C)C`, the half-inhibitory concentration (IC50) in assay [1] is 25 µM; in assay [2], above 25 µM; in assay [3] it was above 25 µM; in assay [4] it was 16 µM; in the assay on MCF7, 17 µM; in the assay with A549 it was 21 µM. Further, the IC50 (in assay [5]; in assay [6]; in the assay with A2780) was above 25 µM throughout.

For `C=C1[C@@H](OC(=O)C[C@H](c2ccccc2)N(C)C)C[C@H](OC(C)=O)[C@]2(C)[C@@H]1C[C@@H]1C[C@H](OC(C)=O)C(C)=C([C@@H](OC(C)=O)[C@@H]2OC(C)=O)C1(C)C`, the IC50 is 14 µM in assay [1]; 10 µM in assay [2]; above 25 µM in assay [3]; above 25 µM in assay [4]; 0.04 µM with MCF7; 12 µM in the assay with A549. Besides, the IC50 in [5] is above 25 µM; with HepG2, 15 µM; in assay [6], above 25 µM; in the assay on SW480, above 25 µM; in the assay on A2780 it was 5.1 µM.

Turning to `CC(=O)O[C@@]12CO[C@@H]1C[C@@H](O)[C@@]1(C)C(=O)[C@H](O)C3=C(C)[C@@H](OC(=O)[C@H](O)[C@@H](NC(=O)c4ccccc4)c4ccccc4)C[C@@](O)([C@@H](OC(=O)c4ccccc4)[C@H]21)C3(C)C`, the 50% inhibitory concentration (IC50) was determined as 0.024 µM in [1]; 2.2 µM in assay [2]; 13 µM in [3]; 7.2 µM in assay [4]; 0.012 µM in the assay with MCF7; 0.011 µM with A549. For the same molecule, the IC50 was above 25 µM in [5]; 0.095 µM in the assay on HepG2; 11 µM in assay [6]; 0.059 µM in the assay with SW480; 0.03 µM in the assay with A2780.

In the case of `C=C1[C@@H](OC(=O)/C=C/c2ccccc2)C[C@H](OC(C)=O)[C@]2(C)[C@@H]1C[C@@H]1C[C@H](OC(C)=O)C(C)=C([C@@H](OC(C)=O)[C@@H]2OC(C)=O)C1(C)C`, the 50% inhibitory concentration (IC50) is 7.1 µM in assay [1]; 15 µM in assay [2]; 11 µM in assay [3]; above 25 µM in assay [4]; above 25 µM in the assay on MCF7; 9.4 µM with A549. Besides, the 50% inhibitory concentration (IC50) in [5] is above 25 µM; in the assay with HepG2, above 25 µM; in assay [6], 12 µM; in the assay on SW480, above 25 µM; in the assay with A2780 it was 9.7 µM.

Take `CC(=O)O[C@H]1C(=O)[C@@]2(C)[C@H]([C@H](OC(=O)c3ccccc3)[C@]3(O)C[C@H](O)C(C)=C1C3(C)C)[C@]1(OC(C)=O)CO[C@@H]1C[C@@H]2O` [BACCATIN III]: the 50% inhibitory concentration (IC50) in assay [1] is 24 µM; in assay [2], above 25 µM; in assay [3], 12 µM; in [4], above 25 µM; with MCF7, 7.4 µM; with A549 it was above 25 µM. Besides, the half-inhibitory concentration (IC50) (in assay [5]; in assay [6]; with A2780) was above 25 µM throughout.

Take `C/C=C(\C)C(=O)N[C@@H](c1ccccc1)[C@@H](O)C(=O)O[C@H]1C[C@@]2(O)[C@@H](OC(=O)c3ccccc3)[C@@H]3[C@]4(OC(C)=O)CO[C@@H]4C[C@H](O)[C@@]3(C)C(=O)[C@H](OC(C)=O)C(=C1C)C2(C)C` [CEPHALOMANNINE]: the 50% inhibitory concentration (IC50) in [1] is 0.005 µM; in assay [2] it was 0.6 µM; in [3], above 25 µM; in assay [4], 4.9 µM; in the assay with MCF7, 0.004 µM; with A549, 0.008 µM. The IC50 in [5] was 7 µM; in the assay with HepG2, 0.02 µM; in assay [6] it was 7.2 µM; in the assay on SW480, 0.033 µM; with A2780 it was 0.013 µM.

`CC(=O)O[C@H]1C(=O)[C@@]2(C)[C@H]([C@H](OC(=O)c3ccccc3)[C@]3(O)C[C@H](OC(=O)[C@H](O)[C@@H](NC(=O)c4ccccc4)c4ccccc4)C(C)=C1C3(C)C)[C@]1(OC(C)=O)CO[C@@H]1C[C@@H]2O` [PACLITAXEL]: the IC50 was determined as 0.58 µM in [2]; 0.066 µM in assay [3]; 4.4 µM in assay [4]; 6.2 µM in [5]; 0.009 µM in the assay on HepG2; 0.021 µM in the assay with SW480.

These data come from ChEMBL document CHEMBL3396968, “Isolation and cytotoxicity evaluation of taxanes from the barks of Taxus wallichiana var. mairei” (Bioorg Med Chem Lett, 2015).
